PMC11915509, “Small molecule inhibitors of hnRNPA2B1–RNA interactions reveal a predictable sorting of RNA subsets into extracellular vesicles” (Nucleic Acids Research, 2025)
Values joined by “and” are separate entries in the source; they are usually repeats but may differ in a detail not shown here. Identical values can stand only once.

Key:
[1] = biological target: T1, hnRNPA2B1-EXOmotif interaction (Homo sapiens, UniProt P22626); assay: AlphaScreen dose-response, inhibition of hnRNPA2B1-EXOmotif RNA interaction; type: binding; details: AlphaScreen dose-response with RNA EXOmotif, one site fitting
T1 construct: purified a human full-length, GST-tagged protein expressed in Escherichia coli cells; made in house; host or cells: E. coli BL21 (DE3)
T1 sequence (P22626 whole entry): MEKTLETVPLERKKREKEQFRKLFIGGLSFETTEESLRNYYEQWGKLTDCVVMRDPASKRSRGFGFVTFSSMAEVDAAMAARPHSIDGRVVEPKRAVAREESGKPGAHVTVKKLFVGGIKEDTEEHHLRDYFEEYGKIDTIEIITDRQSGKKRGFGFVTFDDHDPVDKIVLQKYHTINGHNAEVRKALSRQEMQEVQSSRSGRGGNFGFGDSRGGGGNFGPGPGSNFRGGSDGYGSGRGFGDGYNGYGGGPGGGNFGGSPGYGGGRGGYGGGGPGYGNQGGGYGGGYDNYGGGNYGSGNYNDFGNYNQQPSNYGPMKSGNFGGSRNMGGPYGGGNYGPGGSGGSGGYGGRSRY
Protocol: The assays were performed in OptiPlate-384-well plates (PerkinElmer, 6007299) in 20 μl final volume. The ligands were diluted in AlphaBuffer [25 mM HEPES, pH 7.4, 100 mM NaCl, 0.01% bovine serum albumin (BSA)] and tested using AlphaScreen GST Detection Kit (PerkinElmer, 6760603C). […] For the reactions, 4 μl of the RNA probes were first added to the plate, then 16 μl of a mix containing all the other components was added, and the plate was incubated at room temperature for 1 h in the dark.
The high-throughput drug screening was performed in a total volume of 20 μl using 17 nM of RNA EXO motif (chosen below the hooking point), 30 nM GST-hnRNPA2B1, and 250 nM of compounds belonging to mass spectrometry (MS) Spectrum Collection library (MicroSource, 2000 compounds). Compounds were dispensed into white 384-well Optiplates (PerkinElmer) using Echo 650 acoustic dispenser (Beckman Coulter) followed by the addition of protein in Alpha Buffer using the EL460 dispenser (BioTek). After 15 min of incubation, RNA probes were added by Echo 650 acoustic dispenser, while Donor and Acceptor beads from the GST detection kit (Perkin Elmer) were dispensed by EL460 instrument. Following 60 min of incubation, Alpha signal was detected using Enspire plate reader instrument (PerkinElmer). The raw Alpha counts were normalized to Dimethyl sulfoxide (DMSO)-treated controls within every plate.

[2] = biological target: T2, hnRNPA2B1-RNA 114 probe interaction (Homo sapiens, UniProt P22626); assay: AlphaScreen with RNA 114 probe and compounds; type: binding; details: 250 nM of compounds, 14 nM RNA 114 probe
T2 construct: purified a human full-length, GST-tagged protein expressed in Escherichia coli cells; made in house; host or cells: E. coli BL21 (DE3)
T2 sequence (P22626 whole entry): as above
Protocol: The assays were performed in OptiPlate-384-well plates (PerkinElmer, 6007299) in 20 μl final volume. The ligands were diluted in AlphaBuffer [25 mM HEPES, pH 7.4, 100 mM NaCl, 0.01% bovine serum albumin (BSA)] and tested using AlphaScreen GST Detection Kit (PerkinElmer, 6760603C). For the assay optimization, different concentrations of the RNA probes (0–100 nM) were incubated with different concentrations of GST-hnRNPA2B1 (0–60 nM) in the presence of streptavidin Donor beads and anti-GST-Acceptor beads (PerkinElmer) (20 μg/ml final concentration). For the reactions, 4 μl of the RNA probes were first added to the plate, then 16 μl of a mix containing all the other components was added, and the plate was incubated at room temperature for 1 h in the dark.

EXO-motif RNA probe = assay: Absorbance scan of compounds mixed with EXO-motif RNA; type: binding; details: EXO-motif probe, 1:5 micromolar ratio with compound, room temperature
Protocol: (§1) Five μM RNA EXO motif were mixed with 25 μM compounds in AlphaBuffer (25 mM HEPES, pH 7.4, 100 mM NaCl, 0.01% BSA) to a final volume of 20 μl. Absorbance spectrum (200–530 nm) was measured using Tecan Spark® microplate reader with a NanoQuant plate at room temperature. In fluorescence indicator displacement (FID), a 2× final concentration of Midori green advanced (Resnova) was added to the samples and the melting curve measured using Bio-Rad CFX96™ System from 30°C to 90°C.

[3] = tested on: hnRNPA2B1 protein association with purine-rich RNA probe; assay: RNA pull-down with biotinylated EXOmotif probe after cell treatment, immunoblotting; type: cell-based, mouse; details: NSC34 cells, 6 h, 5 μM compound
Protocol: To prepare native protein lysates, 1–3 × 10^6 NSC34 cells were lysed in buffer R-Lysis [25 mM HEPES, pH 7.5, 100 mM NaCl, 1× protease inhibitor (Thermo Fisher, 78429)] and subjected to a water-bath sonication (35–40 amplitude, 6–7 cycles of 7 s on and 45 s off). After a centrifugation at 14 000 rpm for 20 min at 4°C, the supernatant was collected and 200 μg were incubated with 5 μl of buffer equilibrated Dynabeads^TM M-280 Streptavidin (Invitrogen, 11205D) for 15 min at 4°C in rotation to perform a pre-clearing step. After the magnetic separation, the pre-cleared lysate was incubated with 10 μl of 100 μM RNA biotinylated probes (or 400 ng of biotinylated EV-RNA) and incubated for 1 h at 4°C in rotation. Then, 5 μl/sample of beads were added and the sample were put again in rotation for 20 min at 4°C. […]
Cells were lysed in lysis buffer [50 mM Tris–HCl, pH 7.4, 150 mM NaCl, 1 mM EDTA, 0.25% NP-40, 0.1% Triton X-100, 0.1% sodium dodecyl sulphate, 1× protease inhibitor (Thermo Fisher, 78429)]. […] The signal was measured with Amersham ECL HRP-Conjugated Antibodies (Cytiva) using BioRad Chemidoc XRS+.

EXO-motif RNA = assay: Fluorescence indicator displacement (FID) melting curve, EXO-motif RNA; type: binding; details: 5 μM RNA, 25 μM compound, Midori green
Protocol: as §1

NSC34 cells = assay: Cell viability dose response, NSC34; type: cell-based, mouse; details: NSC34, 24 hr
Protocol: Supplementary Figure S6. Cell viability upon treatment with Hematein. Cells were exposed to increasing concentrations of Hematein or DMSO (control vehicle) for 24 hr under standard growth conditions. […] In both cases a range of drug tolerance was observed before the drop of viability over 10 µM. The graph indicates mean and SD of two independent experiments.

IC50 [1]: ~0.1 µM and 0.0999 µM | interference with RNA 114 probe interaction [2]: most effective inhibitors | thermal shift of the EXO-motif RNA (EXO-motif RNA): 9.5 °C
SMILES: O=C1C=C2CC3(O)COc4c(ccc(O)c4O)C3=C2C=C1O (stereo not shown) [H, hematein]
absorbance shifts, 300-400 nm (EXO-motif RNA probe): absorbance shifts | association of hnRNPA2B1 protein with exogenous purine-rich RNA probe [3]: most effective | IC50 (NSC34 cells; Mus musculus, NSC-34): ~78 µM | concentration of drop of viability (NSC34 cells): over 10 µM
